Where “and” joins values, the source holds several entries; their conditions need not be identical. Equal entries are not always repeated. Toxic doses and inconclusive results are not listed. Cut-off read from the data, not from the text of the source: active = T/C of 150% or more; inactive = T/C below 125%.
Test system: L1210 leukemia ip in BDF1 mice, survival T/C
Assay: NCI In Vivo Anticancer Drug Screen. Data for tumor model L1210 Leukemia (intraperitoneal) in B6D2F1 (BDF1) mice
Details: endpoint: mean survival time, higher = longer survival
Outline: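 Transplanted-tumor mice were given test agent; controls received vehicle only. Survival readings from the two groups were divided (treated over control).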

[1] = dose: 50.0 mg/kg/injection, schedule: Q01DX009 (ip), vehicle: saline with Tween-80
[2] = dose: 100.0 mg/kg/injection, schedule: Q01DX009 (ip), vehicle: saline with Tween-80
[3] = dose: 400.0 mg/kg/injection, schedule: Q01DX009 (ip), vehicle: saline with Tween-80
[4] = dose: 100.0 mg/kg/injection, schedule: Q04DX003 (ip), vehicle: saline
[5] = dose: 200.0 mg/kg/injection, schedule: Q04DX003 (ip), vehicle: saline
[6] = dose: 400.0 mg/kg/injection, schedule: Q04DX003 (ip), vehicle: saline
[7] = dose: 100.0 mg/kg/injection, schedule: Q01DX009 (ip), vehicle: Klucel (hydroxypropylcellulose) (HPC)
[8] = dose: 200.0 mg/kg/injection, schedule: Q01DX009 (ip), vehicle: Klucel (hydroxypropylcellulose) (HPC)
[9] = dose: 400.0 mg/kg/injection, schedule: Q01DX009 (ip), vehicle: Klucel (hydroxypropylcellulose) (HPC)
[10] = dose: 200.0 mg/kg/injection, schedule: Q01DX009 (ip), vehicle: saline with Tween-80
[11] = dose: 100.0 mg/kg/injection, schedule: Q01DX001 (ip), vehicle: Klucel (hydroxypropylcellulose) (HPC)
[12] = dose: 100.0 mg/kg/injection, schedule: Q04DX003 (ip), vehicle: Klucel (hydroxypropylcellulose) (HPC)
[13] = dose: 200.0 mg/kg/injection, schedule: Q01DX001 (ip), vehicle: Klucel (hydroxypropylcellulose) (HPC)
[14] = dose: 200.0 mg/kg/injection, schedule: Q04DX003 (ip), vehicle: Klucel (hydroxypropylcellulose) (HPC)
[15] = dose: 400.0 mg/kg/injection, schedule: Q01DX001 (ip), vehicle: Klucel (hydroxypropylcellulose) (HPC)
[16] = dose: 400.0 mg/kg/injection, schedule: Q04DX003 (ip), vehicle: Klucel (hydroxypropylcellulose) (HPC)

Measured: T/C

O=C(Nc1cccc(C(F)(F)F)c1)Nc1ccc2sc(=S)[nH]c2c1
inactive: dose: 6.25 mg/kg/injection, schedule: Q01DX009 (ip), vehicle: saline with Tween-80 95 % of control | dose: 12.5 mg/kg/injection, schedule: Q01DX009 (ip), vehicle: saline with Tween-80 93 % of control | dose: 25.0 mg/kg/injection, schedule: Q01DX009 (ip), vehicle: saline with Tween-80 93 % of control | [1] 86 % of control | [2] 86 % of control | [3] 95 % of control

CCC1(CC)NC(=O)NC1=O
inactive: dose: 50.0 mg/kg/injection, schedule: Q04DX003 (ip), vehicle: saline 102 % of control | dose: 100.0 mg/kg/injection, schedule: Q01DX009 (ip), vehicle: saline 99 % of control | [4] 105 % of control | dose: 200.0 mg/kg/injection, schedule: Q01DX009 (ip), vehicle: saline 98 % of control | [5] 102 % of control | dose: 400.0 mg/kg/injection, schedule: Q01DX009 (ip), vehicle: saline 102 % of control | [6] 103 % of control

CC(=O)N(c1ccccc1)c1nc(/C=N\NC(N)=S)cs1
inactive: [7] 105 % of control | [8] 106 % of control | [9] 100 % of control

CC(=O)N(c1ccccc1)c1cc(Cl)cc[n+]1[O-]
inactive: dose: 100.0 mg/kg/injection, schedule: Q01DX001 (ip), vehicle: saline 96 % of control | dose: 200.0 mg/kg/injection, schedule: Q01DX001 (ip), vehicle: saline 96 % of control | dose: 400.0 mg/kg/injection, schedule: Q01DX001 (ip), vehicle: saline 97 % of control

CC(=O)Oc1c(Cl)cc(Cl)cc1Cl
inactive: [2] 107 % of control | [10] 100 % of control | [3] 100 % of control

CCOc1ccccc1-n1c(-c2ccc([N+](=O)[O-])cc2)csc1=NC(=O)c1cccc([N+](=O)[O-])c1
inactive: [11] 101 % of control | [7] 96 % of control and 100 % of control and 106 % of control | dose: 100.0 mg/kg/injection, schedule: Q04DX002 (ip), vehicle: Klucel (hydroxypropylcellulose) (HPC) 94 % of control and 98 % of control | [12] 101 % of control | [13] 101 % of control | [8] 93 % of control (2×) and 95 % of control | dose: 200.0 mg/kg/injection, schedule: Q04DX002 (ip), vehicle: Klucel (hydroxypropylcellulose) (HPC) 97 % of control and 98 % of control | [14] 95 % of control | [15] 98 % of control | [9] 95 % of control and 97 % of control (2×) | dose: 400.0 mg/kg/injection, schedule: Q04DX002 (ip), vehicle: Klucel (hydroxypropylcellulose) (HPC) 96 % of control and 97 % of control | [16] 93 % of control

CCC(C)N(CCNc1cc(C)nc(/N=C(\N)Nc2ccc(Cl)c(Cl)c2)n1)C(C)CC (stereo not given)
inactive: [7] 106 % of control | [8] 97 % of control | [9] 86 % of control

CS(=O)(=O)OCC(O)C(O)CI (stereo not given)
inactive: dose: 75.0 mg/kg/injection, schedule: Q01DX001 (ip), vehicle: water 104 % of control | dose: 150.0 mg/kg/injection, schedule: Q01DX001 (ip), vehicle: water 111 % of control | dose: 300.0 mg/kg/injection, schedule: Q01DX001 (ip), vehicle: water 116 % of control

CCN1C(=O)NC(=O)/C(=C/N(CCO)CCO)C1=O
inactive: [7] 106 % of control | [12] 94 % of control | [8] 101 % of control | [14] 98 % of control | [9] 100 % of control | [16] 93 % of control

Cc1ncn(C)n1
inactive: dose: 100.0 mg/kg/injection, schedule: Q04DX002 (ip), vehicle: saline 94 % of control | dose: 200.0 mg/kg/injection, schedule: Q04DX002 (ip), vehicle: saline 112 % of control | dose: 400.0 mg/kg/injection, schedule: Q04DX002 (ip), vehicle: saline 98 % of control

OC1/C(=C/c2ccco2)CCC2CCCCC21 (stereo not given)
inactive: [11] 101 % of control | [13] 98 % of control | [15] 90 % of control

Cc1ccc(S(=O)N(OCc2ccccc2)S(=O)c2ccc(C)cc2)cc1 (stereo not given)
inactive: dose: 100.0 mg/kg/injection, schedule: Q04DX002 (ip), vehicle: other 100 % of control | dose: 200.0 mg/kg/injection, schedule: Q04DX002 (ip), vehicle: other 100 % of control | dose: 400.0 mg/kg/injection, schedule: Q04DX002 (ip), vehicle: other 100 % of control

Cc1ccc2c(c1)Sc1ccc3ccccc3c1N2
inactive: dose: 100.0 mg/kg/injection, schedule: Q01DX009 (ip), vehicle: saline sonified 104 % of control | [12] 97 % of control | dose: 200.0 mg/kg/injection, schedule: Q01DX009 (ip), vehicle: saline sonified 88 % of control | [14] 89 % of control | dose: 400.0 mg/kg/injection, schedule: Q01DX009 (ip), vehicle: saline sonified 100 % of control | [16] 92 % of control

CSc1nc2c(=O)[nH][nH]c(=O)c2n1Cc1ccccc1
inactive: dose: 100.0 mg/kg/injection, schedule: Q01DX001 (ip), vehicle: carboxymethylcellulose (CMC) 92 % of control | dose: 200.0 mg/kg/injection, schedule: Q01DX001 (ip), vehicle: carboxymethylcellulose (CMC) 90 % of control | dose: 400.0 mg/kg/injection, schedule: Q01DX001 (ip), vehicle: carboxymethylcellulose (CMC) 95 % of control

COc1cccc(CCNC(=O)CC#N)c1
inactive: [12] 98 % of control | [14] 87 % of control | [16] 91 % of control

NC(=O)C/C=C/CC(N)=O
inactive: [12] 102 % of control | [14] 102 % of control | [16] 102 % of control

CN(C)C(=O)C1C2C=CC(C3CC23)C1C(=O)N(C)C (stereo not given)
inactive: [4] 95 % of control | [5] 90 % of control | [6] 95 % of control

CCCCC(CC)C1NCCO1 (stereo not given)
inactive: [1] 87 % of control | [2] 100 % of control | dose: 100.0 mg/kg/injection, schedule: Q04DX003 (ip), vehicle: saline with Tween-80 105 % of control | [10] 93 % of control | dose: 200.0 mg/kg/injection, schedule: Q04DX003 (ip), vehicle: saline with Tween-80 86 % of control

CCCCSP(SCCCC)N1CCCCC1
inactive: [4] 102 % of control | [5] 98 % of control
